Data as given in US10344060B2 (priority 2013, dated 2019).

Target: hNav1.7 (Homo sapiens, UniProt Q15858)
Experiment: cell-based
Format: cell-based
Settings: for Nav1.4/Nav1.7 / Nav1.5/Nav1.7: ratio of PX tonic IC50 values, Table 11; for IC50: Table 12, PatchXpress, tonic block, read-out: PX hNav1.7 Tonic IC50

hNav1.7, sequence (Q15858 whole entry): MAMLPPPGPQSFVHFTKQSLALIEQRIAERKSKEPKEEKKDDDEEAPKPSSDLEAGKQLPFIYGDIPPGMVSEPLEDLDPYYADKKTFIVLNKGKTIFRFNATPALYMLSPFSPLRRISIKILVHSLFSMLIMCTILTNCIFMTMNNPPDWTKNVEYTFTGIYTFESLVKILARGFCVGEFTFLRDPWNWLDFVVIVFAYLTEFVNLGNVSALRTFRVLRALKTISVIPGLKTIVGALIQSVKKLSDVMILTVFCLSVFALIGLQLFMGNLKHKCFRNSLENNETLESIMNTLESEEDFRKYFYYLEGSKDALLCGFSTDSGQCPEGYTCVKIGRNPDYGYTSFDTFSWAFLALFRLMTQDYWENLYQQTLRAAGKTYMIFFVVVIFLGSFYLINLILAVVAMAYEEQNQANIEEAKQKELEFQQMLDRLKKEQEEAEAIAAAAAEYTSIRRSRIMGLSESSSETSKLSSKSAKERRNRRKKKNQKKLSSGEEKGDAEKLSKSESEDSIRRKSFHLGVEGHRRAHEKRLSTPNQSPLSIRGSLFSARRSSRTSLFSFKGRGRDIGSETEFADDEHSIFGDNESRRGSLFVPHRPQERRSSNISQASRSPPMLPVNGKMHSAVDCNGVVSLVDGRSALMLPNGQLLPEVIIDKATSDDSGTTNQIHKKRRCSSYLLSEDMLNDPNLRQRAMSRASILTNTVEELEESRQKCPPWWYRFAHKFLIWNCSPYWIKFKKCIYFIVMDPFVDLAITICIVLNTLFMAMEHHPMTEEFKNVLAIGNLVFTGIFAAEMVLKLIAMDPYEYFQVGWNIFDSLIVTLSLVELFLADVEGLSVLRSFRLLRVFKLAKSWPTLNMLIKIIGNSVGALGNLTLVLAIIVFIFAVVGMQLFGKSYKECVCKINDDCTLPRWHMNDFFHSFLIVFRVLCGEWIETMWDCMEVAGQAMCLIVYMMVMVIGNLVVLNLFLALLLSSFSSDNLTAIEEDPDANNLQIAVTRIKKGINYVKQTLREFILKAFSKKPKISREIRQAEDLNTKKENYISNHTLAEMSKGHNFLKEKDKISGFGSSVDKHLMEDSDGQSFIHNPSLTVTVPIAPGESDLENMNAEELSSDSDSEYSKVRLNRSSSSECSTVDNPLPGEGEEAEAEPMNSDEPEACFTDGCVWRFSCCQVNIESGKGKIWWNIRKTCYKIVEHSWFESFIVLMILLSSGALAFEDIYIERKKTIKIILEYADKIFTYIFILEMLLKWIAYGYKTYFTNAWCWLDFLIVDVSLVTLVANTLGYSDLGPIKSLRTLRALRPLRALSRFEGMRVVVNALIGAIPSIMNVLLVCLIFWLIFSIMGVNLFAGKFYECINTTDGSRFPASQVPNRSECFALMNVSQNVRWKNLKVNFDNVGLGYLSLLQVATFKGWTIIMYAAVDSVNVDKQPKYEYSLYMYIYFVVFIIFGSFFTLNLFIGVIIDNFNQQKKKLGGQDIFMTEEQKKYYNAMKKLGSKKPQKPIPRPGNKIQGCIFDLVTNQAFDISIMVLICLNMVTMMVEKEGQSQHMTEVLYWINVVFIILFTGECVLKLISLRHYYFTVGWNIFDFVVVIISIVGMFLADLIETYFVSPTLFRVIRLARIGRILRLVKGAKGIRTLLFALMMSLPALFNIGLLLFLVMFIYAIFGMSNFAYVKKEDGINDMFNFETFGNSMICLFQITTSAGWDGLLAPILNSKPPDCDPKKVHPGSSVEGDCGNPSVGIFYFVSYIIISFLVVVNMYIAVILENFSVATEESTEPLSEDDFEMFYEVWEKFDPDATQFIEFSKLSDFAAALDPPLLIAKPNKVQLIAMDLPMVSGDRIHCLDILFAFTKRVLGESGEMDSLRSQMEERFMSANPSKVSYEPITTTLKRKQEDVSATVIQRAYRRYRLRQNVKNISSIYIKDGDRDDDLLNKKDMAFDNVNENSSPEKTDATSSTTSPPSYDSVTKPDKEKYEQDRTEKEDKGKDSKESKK

Structure (SMILES)	Nav1.4/Nav1.7	Nav1.5/Nav1.7	IC50 [nM]
CC[C@H](C)[C@H](NC(=O)[C@H](Cc1ccc(O)cc1)NC(=O)[C@H](CCCCN)NC(=O)[C@H](CCCNC(=N)N)NC(=O)[C@@H]1CSSC[C@@H]2NC(=O)[C@H](C)NC(=O)[C@H](CCCNC(=N)N)NC(=O)[C@H](CCCCN)NC(=O)[C@H](CO)NC(=O)[C@H](CC(=O)O)NC(=O)[C@@H]3CSSC[C@H](NC(=O)[C@H](CCC(=O)O)NC(=O)[C@H](CC(C)C)NC(=O)CNC(=O)[C@H](CCC(=O)O)NC(=O)[C@H](CSSC[C@H](NC(=O)[C@@H](N)CCC(=O)O)C(=O)N[C@@H](CCC(N)=O)C(=O)N[C@@H](CCCCN)C(=O)N[C@@H](Cc4c[nH]c5ccccc45)C(=O)N[C@@H](CCSC)C(=O)N[C@@H](Cc4c[nH]c5ccccc45)C(=O)N[C@@H]([C@@H](C)O)C(=O)N3)NC2=O)C(=O)N[C@@H](CCCCN)C(=O)N[C@@H](CC(C)C)C(=O)N[C@@H](Cc2c[nH]c3ccccc23)C(=O)N1)C(N)=O [compound 277]	171	>1818	
CCCC[C@@H]1NC(=O)[C@H](Cc2c[nH]c3ccccc23)NC(=O)[C@H](CCCCN)NC(=O)[C@H](CCC(N)=O)NC(=O)[C@@H](NC(=O)[C@H](Cc2ccc(O)cc2)NC(=O)[C@H](N)Cc2ccccc2)CSSC[C@@H]2NC(=O)[C@@H]3CSSC[C@@H](C(=O)N[C@@H](CCCNC(=N)N)C(=O)N[C@@H](CCCCN)C(=O)N[C@H](C(=O)N[C@H](C(N)=O)[C@@H](C)CC)[C@@H](C)CC)NC(=O)[C@H](Cc4c[nH]c5ccccc45)NC(=O)[C@H](CC(C)C)NC(=O)[C@H](CCCCN)NC(=O)[C@H](CSSC[C@H](NC(=O)[C@H]([C@@H](C)O)NC(=O)[C@H](Cc4c[nH]c5ccccc45)NC1=O)C(=O)N[C@@H](CC(=O)O)C(=O)N[C@@H](CO)C(=O)N[C@@H](CCCCN)C(=O)N[C@@H](CCCNC(=N)N)C(=O)N[C@@H](C)C(=O)N3)NC(=O)[C@H](CCCNC(=N)N)NC(=O)[C@H](CC(C)C)NC(=O)CNC(=O)[C@H](CCC(=O)O)NC2=O [compound 374]	19	1757	
C#CC[C@H](N)C(=O)N[C@@H](Cc1ccc(O)cc1)C(=O)N[C@H]1CSSC[C@@H]2NC(=O)[C@@H]3CSSC[C@@H](C(=O)N[C@@H](CCCNC(=N)N)C(=O)N[C@@H](CCCCN)C(=O)N[C@@H](CCC(=O)O)C(=O)N[C@H](C(N)=O)[C@@H](C)CC)NC(=O)[C@H](Cc4c[nH]c5ccccc45)NC(=O)[C@H](CC(C)C)NC(=O)[C@H](CCC(N)=O)NC(=O)[C@H](CSSC[C@H](NC(=O)[C@H]([C@@H](C)O)NC(=O)[C@H](Cc4c[nH]c5ccccc45)NC(=O)[C@H](CCCC)NC(=O)[C@H](Cc4c[nH]c5ccccc45)NC(=O)[C@H](CCCCN)NC(=O)[C@H](CCC(N)=O)NC1=O)C(=O)N[C@@H](CC(=O)O)C(=O)N[C@@H](CO)C(=O)N[C@@H](CCCCN)C(=O)N[C@@H](CCCNC(=N)N)C(=O)N[C@@H](C)C(=O)N3)NC(=O)[C@H](CCCNC(=N)N)NC(=O)[C@H](CC(C)C)NC(=O)CNC(=O)[C@H](CCC(=O)O)NC2=O [compound 804]			35.3
C#CC[C@@H]1NC(=O)[C@@H]2CSSC[C@H](NC(=O)[C@H](CCC(=O)O)NC(=O)[C@H](CCC)NC(=O)[C@@H](N)CCC(=O)O)C(=O)N[C@@H](CCC(N)=O)C(=O)N[C@@H](CCCCN)C(=O)N[C@@H](Cc3c[nH]c4ccccc34)C(=O)N[C@@H](CCCC)C(=O)N[C@@H](Cc3c[nH]c4ccccc34)C(=O)N[C@@H]([C@@H](C)O)C(=O)N[C@H]3CSSC[C@H](NC(=O)[C@H](CCCNC(=N)N)NC(=O)[C@H](CC(C)C)NC(=O)CNC1=O)C(=O)N[C@@H](CCCCN)C(=O)N[C@@H](CC(C)C)C(=O)N[C@@H](Cc1c[nH]c4ccccc14)C(=O)N[C@H](C(=O)N[C@@H](CCCNC(=N)N)C(=O)N[C@@H](CCCCN)C(=O)N[C@@H](CCC(=O)O)C(=O)N[C@H](C(N)=O)[C@@H](C)CC)CSSC[C@H](NC(=O)[C@H](C)NC(=O)[C@H](CCCNC(=N)N)NC(=O)[C@H](CCCCN)NC(=O)[C@H](CCC(=O)O)NC(=O)[C@H](CC(=O)O)NC3=O)C(=O)N2 [compound 772]			15.2
